In patent US20260048046A1, “METHOD FOR IMPROVING GROWTH PERFORMANCE IN FEEDLOT CATTLE” (Elanco US Inc., priority 2022, published 2026):
Entries after “also recorded” stand apart in the source; their conditions may differ.

System: beef cattle
Assay: 91-d study: carcass characteristics
Format: in vivo
Details: for Adjusted fat thickness / Calculated yield grade / HGW / IM area / KPH / Dressing percentage / Lean maturity / Overall maturity / Skeletal maturity / Marbling score: 91-d treatment, LS mean; for Dressing percentage: unshrunk BW basis; for Lean maturity / Overall maturity / Skeletal maturity: 100 A, 200 B maturity; for Marbling score: 500 Small, 600 Modest
From the text: A randomized complete block design was used to evaluate the effect of lubabegron (LUB) on performance over a 91-d period using 336 beef cattle (BW=453±34.5 kg) housed in cattle pen enclosures (CPE). Four LUB treatments were included in the study based on dose: 0.0 (control or CON), 1.38, 5.5, and 22.0 (mg·kg^−1 of DM). Because there was a limited number of CPE (n=8), three sequential cycles (blocks) were required to generate 6 replicates of each dose×sex combination. As such, 112 cattle (56 steers and 56 heifers) were housed concurrently within each cycle across the eight CPE (14 cattle/CPE), with each dose×sex combination being represented by a single CPE/cycle. To assure different frame sizes of cattle were represented, cattle in cycles one and three were large-frame Continental crossbreds, whereas cattle in cycle 2 were medium-frame British crossbreds.
On day 91, cattle were loaded onto double-decked aluminum semi-trailers and transported ˜1,000 km to a commercial abattoir where they were slaughtered following an ˜5 to 9 h lairage. Carcass identification was maintained throughout the slaughter process by recording ear tag sequence at stunning and then cross-matching to sequentially numbered carcass tags. Hot carcass weights and KPH were measured following industry standard processing, and yield grade (YG) and quality grade data were collected from left carcass sides by trained university personnel after 22 h in a spray-chill system.
Data were analyzed using version 9.2 of SAS (SAS Institute, Cary, NC), and the individual CPE were considered the experimental unit. Continuous variables were analyzed using PROC MIXED, with treatment (LUB dose), sex, and the dose×sex interaction as fixed effects, and cycle as the random effect included in the model. If the dose×sex interaction was not significant (P>0.05), the main effect of dose pooled across sexes was evaluated. When the main effect of dose was significant (P≤0.05) or tended to be significant (0.05≤P≤0.10), planned contrasts comparing each LUB dose to CON were performed in a pairwise fashion. If the dose×sex was significant (P≤0.05) planned contrasts comparing each LUB dose to CON within sex were performed in a pairwise fashion. Treatment means were estimated using the LSMEANS statement.
Discrete variables were analyzed with a generalized linear mixed model using a binomial distribution and logit link function in PROC GLIMMIX. The classification of fixed and random effects and the handling of interactions and pairwise comparisons were performed in a similar manner as the continuous variables. Statistical analyses for YG were performed on both continuous and discrete (YG 1=1.00 to 1.99, YG 2=2.00 to 2.99, and so on) forms of data, and quality grades were further sorted into the five categories routinely used for determining premium or discount adjustments when cattle are marketed on a grid-based system (U.S. Prime, upper 2/3 Choice, low Choice, Select, and Standard). […] Fisher's exact test was performed using PROC FREQ to evaluate the frequency distribution of the CON cattle compared with LUB. Statistical significance for the main effects of dose was determined by P≤0.05 and tendencies were declared when 0.05≤P≤0.10.

CC(C)(Cc1ccc(Oc2ncccc2C#N)cc1)NC[C@H](O)COc1ccccc1-c1cccs1 [LUB, 2-{4-[2-({(2S)-2-Hydroxy-3-[2-(2-thienyl)phenoxy]propyl}amino)-2-methylpropyl]phenoxy}nicotinonitrile]
Effect of LUB treatment on skeletal, lean, or overall maturity (91 d, P≥0.262): no effect
Probability of cattle producing a YG3 carcass (91 d, YG as discrete variable, CON vs LUB-fed): greater (P<0.019) for CON-than LUB-fed cattle
Probability of cattle producing YG1, YG2, or YG4 carcasses (91 d, across treatments, P≥0.233): similar
Effect of LUB treatment on calculated YG (91 d, all LUB doses vs CON, P=0.155): no effect
Effect of LUB treatment on adjusted fat thickness (91 d, all LUB doses vs CON, P=0.579): not affected; also recorded: no change
Dark cutter incidence (91 d, only a single carcass over the entire study): not influenced by treatment
Increased HCW (LUB 1.38 mg·kg^−1 DM (first of the respective treatments), 91 d): 15 kg animal-1
Adjusted fat thickness (LUB 1.38 mg·kg^−1 DM): 1.15 cm
Calculated yield grade (LUB 1.38 mg·kg^−1 DM): 2.37
HGW (LUB 1.38 mg·kg^−1 DM): 364 kg
IM area (LUB 1.38 mg·kg^−1 DM): 94.8 cm^2
KPH (LUB 1.38 mg·kg^−1 DM): 1.99%
Dressing percentage (LUB 1.38 mg·kg^−1 DM): 62.4%
Lean maturity (LUB 1.38 mg·kg^−1 DM): 163
Overall maturity (LUB 1.38 mg·kg^−1 DM): 168
Skeletal maturity (LUB 1.38 mg·kg^−1 DM): 170
Marbling score (LUB 1.38 mg·kg^−1 DM): 573
Increased HCW (LUB 5.5 mg·kg^−1 DM (second of the respective treatments), 91 d): 16 kg animal-1
Adjusted fat thickness (LUB 5.5 mg·kg^−1 DM): 1.24 cm
Calculated yield grade (LUB 5.5 mg·kg^−1 DM): 2.41
HGW (LUB 5.5 mg·kg^−1 DM): 365 kg
KPH (LUB 5.5 mg·kg^−1 DM): 1.96%
Dressing percentage (LUB 5.5 mg·kg^−1 DM): 62.7%
Lean maturity (LUB 5.5 mg·kg^−1 DM): 167
Overall maturity (LUB 5.5 mg·kg^−1 DM): 169
Skeletal maturity (LUB 5.5 mg·kg^−1 DM): 170
Marbling score (LUB 5.5 mg·kg^−1 DM): 560
Increased HCW (LUB 22.0 mg·kg^−1 DM (third of the respective treatments), 91 d): 16 kg animal-1
Adjusted fat thickness (LUB 22.0 mg·kg^−1 DM): 1.19 cm
Calculated yield grade (LUB 22.0 mg·kg^−1 DM): 2.25
HGW (LUB 22.0 mg·kg^−1 DM): 365 kg
IM area (LUB 22.0 mg·kg^−1 DM): 96.8 cm^2
KPH (LUB 22.0 mg·kg^−1 DM): 1.61%
Dressing percentage (LUB 22.0 mg·kg^−1 DM): 62.8%
Lean maturity (LUB 22.0 mg·kg^−1 DM): 163
Overall maturity (LUB 22.0 mg·kg^−1 DM): 168
Skeletal maturity (LUB 22.0 mg·kg^−1 DM): 172
Marbling score (LUB 22.0 mg·kg^−1 DM): 562
Carcass weights heavier than CON (cattle fed LUB (1.38, 5.5, 22.0 mg·kg^−1 DM), 91 d): about 15 kg
Probability of grading high Choice vs CON (cattle fed LUB, 91 d, P=0.004): lower
Probability of grading low Choice vs CON (cattle fed LUB, 91 d, P=0.021): greater
